# Assay results taken from patent publication US11999713B2, “Methionine adenosyltransferase 2a (MAT2A) inhibitors and uses thereof” (Insilico Medicine IP Limited, priority 2021, dated 2024).
# Target: MAT2A (Homo sapiens, UniProt P31153)
# Experiment: MAT2A Biochemical Assay
# Conditions: 1 uM start, 3-fold dilution, 10 doses; Biomol Green, O.D.620; read-out: MAT2A enzymatic IC50
# Protocol: Example A: MAT2A Biochemical Assay
# Compounds described herein were tested as follows:
# (1). Prepared 1× Assay buffer.
# (2). Preparation of compound concentration gradient: the compounds test condition were 1 uM start, 3-fold dilution, 10 doses, singlet or duplicate. 100× concentration compounds were prepared in 384-well plate. Then used Echo 550 to transfer 250 nl to a 384-reaction plate for later use. Added 250 nl of 100% DMSO to the negative and positive control wells.
# (3). Prepared 1.67× final concentration enzyme solution with 1× Assay buffer.
# (4). Added 15 μl of 1.67× Enzyme solution to the compound wells and positive control wells; added 15 μl of 1× Assay buffer to the negative control wells.
# (5). Centrifuged at 1000 rpm for 30 seconds and incubate for 15 minutes.
# (6). Prepared 2.5× final concentration Substrate mix solution with 1× Assay buffer.
# (7). Added 10 μl of 2.5× final concentration Substrate mix solution to start the reaction.
# (8). Centrifuged at 1000 rpm for 30 seconds and incubate for 150 minutes.
# (9). Added 50 μl Biomol Green to stop the reaction, centrifuge at 1000 rpm for 30 seconds and incubate for 15 minutes, read O.D.620, process data.
# (1) Using GraphPad Prism 5.
# (2) % Inh=(Max signal−Compound signal)/(Max signal−Min signal)*100.
# (3) Max signal was obtained from the positive control wells.
# (4) Min signal was obtained from the negative control wells.
# Chain of MAT2A (P31153 whole entry, species assumed): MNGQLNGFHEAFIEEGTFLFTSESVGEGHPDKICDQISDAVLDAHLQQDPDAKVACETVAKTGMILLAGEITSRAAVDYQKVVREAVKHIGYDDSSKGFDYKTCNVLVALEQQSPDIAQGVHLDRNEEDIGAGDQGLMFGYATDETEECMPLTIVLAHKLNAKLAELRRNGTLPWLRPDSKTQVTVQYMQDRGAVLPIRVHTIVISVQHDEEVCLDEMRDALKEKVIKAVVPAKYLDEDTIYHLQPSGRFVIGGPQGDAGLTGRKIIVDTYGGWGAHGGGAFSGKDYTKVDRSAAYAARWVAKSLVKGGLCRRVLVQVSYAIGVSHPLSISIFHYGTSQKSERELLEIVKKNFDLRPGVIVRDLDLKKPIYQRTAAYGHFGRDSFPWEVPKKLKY
row,IC50,Structure (SMILES)
1,0.1 to 0.5 µM,"C#CC1(Nc2nc(=O)n(-c3cccnc3)c3cc(C(F)(F)F)ncc23)CC1 [Example 60, 4-((1-ethynylcyclopropyl)amino)-1-(pyridin-3-yl)-7-(trifluoromethyl)pyrido[4,3-d]pyrimidin-2(1H)-one]"
2,0.1 to 0.5 µM,"C#CC(C)Nc1nc(=O)n(-c2cccnc2)c2cc(C(F)(F)F)ncc12 (stereo not drawn) [Example 59, 4-(but-3-yn-2-ylamino)-1-(pyridin-3-yl)-7-(trifluoromethyl)pyrido[4,3-d]pyrimidin-2(1H)-one]"
3,0.05 to 0.1 µM,"C#CC1(Nc2nc(=O)n(-c3cccnc3)c3nc(C(F)(F)F)ncc23)CC1 [Example 62, 4-((1-ethynylcyclopropyl)amino)-1-(pyridin-3-yl)-7-(trifluoromethyl)pyrimido[4,5-d]pyrimidin-2(1H)-one]"
4,0.05 to 0.1 µM,"C#CCNc1nc(=O)n(-c2cccnc2)c2cc(C(F)(F)F)cc(OC(F)F)c12 [Example 39, 5-(difluoromethoxy)-4-(prop-2-yn-1-ylamino)-1-(pyridin-3-yl)-7-(trifluoromethyl)quinazolin-2(1H)-one]"
5,0.05 to 0.1 µM,"C#CC1(Nc2nc(=O)n(-c3cccnc3C)c3nc(C(F)(F)F)cc(OC)c23)CC1 [Example 43, 4-((1-ethynylcyclopropyl)amino)-5-methoxy-1-(2-methylpyridin-3-yl)-7-(trifluoromethyl)pyrido[2,3-d]pyrimidin-2(1H)-one]"
6,0.1 to 0.5 µM,"C#CCNc1nc(=O)n(-c2cncnc2)c2cc(Cl)ccc12 [Example 71, 7-chloro-4-(prop-2-yn-1-ylamino)-1-(pyrimidin-5-yl)quinazolin-2(1H)-one]"
7,0.1 to 0.5 µM,"C#CCNc1nc(=O)n(-c2cnn(C)c2)c2cc(C(F)(F)F)ccc12 [Example 72, 1-(1-methyl-1H-pyrazol-4-yl)-4-(prop-2-yn-1-ylamino)-7-(trifluoromethyl)quinazolin-2(1H)-one]"
8,0.1 to 0.5 µM,"NC/C=C/CNc1nc(=O)n(-c2cccnc2)c2cc(C(F)(F)F)ccc12 [Example 79, (E)-4-((4-aminobut-2-en-1-yl)amino)-1-(pyridin-3-yl)-7-(trifluoromethyl)quinazolin-2(1H)-one]"
9,0.05 to 0.1 µM,C=CC1(Nc2nc(=O)n(-c3cccnc3C)c3cc(C(F)(F)F)cc(OC)c23)CC1 [Example 78]
10,0.1 to 0.5 µM,"C#CCNc1nc(=O)n(-c2cccnc2)c2cc(C(F)(F)F)ncc12 [Example 58, 4-(prop-2-yn-1-ylamino)-1-(pyridin-3-yl)-7-(trifluoromethyl)pyrido[4,3-d]pyrimidin-2(1H)-one]"
11,0.05 to 0.1 µM,"C#CCNc1nc(=O)n(-c2cnccn2)c2cc(C(F)(F)F)cc(F)c12 [Example 32, 5-fluoro-4-(prop-2-yn-1-ylamino)-1-(pyrazin-2-yl)-7-(trifluoromethyl)quinazolin-2(1H)-one]"
12,0.5 to 1 µM,"C#CCNc1nc(=O)n(-c2cccnc2)c2cc(C(F)(F)F)cnc12 [Example 55, 4-(prop-2-yn-1-ylamino)-1-(pyridin-3-yl)-7-(trifluoromethyl)pyrido[3,2-d]pyrimidin-2(1H)-one]"
13,0.05 to 0.1 µM,"CN(C)CC#CCNc1nc(=O)n(-c2cccnc2)c2cc(Cl)ccc12 [Example 3, 7-chloro-4-((4-(dimethylamino)but-2-yn-1-yl)amino)-1-(pyridin-3-yl)quinazolin-2(1H)-one]"
14,0.1 to 0.5 µM,"C#CC1CCCN(c2nc(=O)n(-c3ccccc3Cl)c3cc(Cl)ccc23)C1 (stereo not drawn) [Example 11, 7-chloro-1-(2-chlorophenyl)-4-(3-ethynylpiperidin-1-yl)quinazolin-2(1H)-one]"
15,0.1 to 0.5 µM,"C#CCNc1nc(=O)n(-c2cc(C)cnc2C)c2cc(C(F)(F)F)ccc12 [Example 44, 1-(2,5-dimethylpyridin-3-yl)-4-(prop-2-yn-1-ylamino)-7-(trifluoromethyl)quinazolin-2(1H)-one]"
16,0.1 to 0.5 µM,"C#CCOc1nc(=O)n(-c2cccnc2)c2cc(Cl)ccc12 [Example 9, 7-chloro-4-(prop-2-yn-1-yloxy)-1-(pyridin-3-yl)quinazolin-2(1H)-one]"
17,0.1 to 0.5 µM,"C#CC1(O)CN(c2nc(=O)n(-c3ccccc3Cl)c3cc(Cl)ccc23)C1 [Example 12, 7-chloro-1-(2-chlorophenyl)-4-(3-ethynyl-3-hydroxyazetidin-1-yl)quinazolin-2(1H)-one]"
18,0.05 to 0.1 µM,"C#CC1(Nc2nc(=O)n(-c3cccnc3C)c3cc(C(F)(F)F)cc(OC(F)F)c23)CC1 [Example 41, 5-(difluoromethoxy)-4-((1-ethynylcyclopropyl)amino)-1-(2-methylpyridin-3-yl)-7-(trifluoromethyl)quinazolin-2(1H)-one]"
